Assay results reported in patent publication US10954258B2, “STAT3 dimerization inhibitors” (H. LEE MOFFITT CANCER CENTER AND RESEARCH INSTITUTE, INC., priority 2012, dated 2021).

Key:
Type in all cases: cell-based, human
H460 cells = test: anchorage independent growth by soft agar assay, H460; conditions: low activated STAT3 level
Protocol: (§1) Soft agar colony formation assays were performed in 12-well plate as described in Balasis, et al., Clin. Cancer. […] Colonies were allowed to grow for 3-4 weeks, and quantified by staining with 1 mg/mL MTT (Sigma, St. Louis, Mo., USA) overnight.

[1] = tested on: MDA-MB-468 cells transiently transfected with vector or STAT3C; test: STAT3-C rescue: western blotting, MTT, migration and invasion
Description: To this end, MDA-MB-468 were transfected cells with STAT3-C, then treated the cells with S3I-1757 and processed the cells for western blotting, cell growth, migration and invasion.

[2] = molecular target: dimerization of FLAG-STAT3 and HA-STAT3 (Mus musculus, UniProt P42227); test: co-localization of FLAG-STAT3 and HA-STAT3 by immunofluorescence; conditions: HEK293 cells; 1, 2 or 4 hours
Protocol: HEK-293/FLAG-Stat3/HA-Stat3 cells were cultured (4000 cells per well) with G418 400 ug/ml in 8 well chamber slide. The cells were treated with S3I-1757 or S3I-1756 for 1 hour, 2 hours, or 4 hours. The cells were then rinsed with phosphate buffered saline (PBS), fixed with ice-cold methanol for 15 minutes, washed 3 times in PBS, permeabilized with 0.2% Triton X-100 for 15 minutes, and further washed 3-4 times with PBS. Cells were then blocked in 1% bovine serum albumin (BSA) for 30 min and incubated with anti-HA (Santa Cruz, Santa Cruz, Calif., USA) or anti-FLAG (Sigma, St. Louis, Mo., USA) primary antibody at 1:100 dilution at 4° C. overnight. Subsequently, cells were rinsed 4-5 times in PBS, incubated with Alexa fluor secondary antibody (Invitrogen, Carlsbad, Calif., USA) for 1 hour at room temperature in the dark. Cells were then washed 5 times with PBS, covered with cover slides with […] mounting medium containing DAPI (Vector Lab, Inc., Burlingame, Calif.), and examined immediately under Zeiss Upright Fluorescence Microscope (Zeiss, Thornwood, N.Y., USA).
HASTAT3/FLAG-STAT3/HEK 293 cells were treated with vehicle, S3I-1757 or S3I-1756 and the cells were processed for immunofluorescence staining for FLAG-STAT3 and HA-STAT3 and analyzed by confocal microscopy.

[3] = tested on: STAT3-DNA binding activity in MDA-MB-468 and A-549 cells; test: STAT3-DNA binding filter plate assay on nuclear extracts; conditions: 1, 2 or 4 hours
Protocol: Nuclear extract preparation was carried out as described in Yu, et al., Science 1995; 269(5220):81-83. The STAT3-DNA binding filter plate assay was performed following the manual of the filter plate assay kit (Signosis, Sunnyvale, Calif.), as described for NFkB (Ying, et al., Blood 2011; 117(4):1301-1307). The TF Binding buffer was mixed with the STAT3 probe (biotin labeled STAT3 DNA binding sequence) and nuclear extract and incubated at 16° C. for 30 minutes to form the STAT3-DNA complex. The STAT3-DNA complex was then separated from free probe by using a filter plate. After several steps of binding and washing, bound STAT3 probe is retained on the filter in the corresponding well of Filer Plate and the free DNA probe is removed. The bound pre-labeled STAT3 probe was then eluted from the filter plate by centrifuge with elution buffer. Eluted probes were then hybridized into 96-well Hybridization Plate for quantitative analysis. The captured STAT3 probe was further detected by conjugation with streptavidin-HRP. The chemiluminescence of each well was detected by 2104 EnVisionR Multilabel Reader of PerkinElmer (Pekin Elmer, Waltham, Mass., USA) within 5 minutes after mixture with substrates. […]

[4] = tested on: MDA-MB-468, MDA-MB-231, H358, A549 cells; test: MTT assay, cells with persistently activated STAT3; conditions: 48 hours
Protocol: MTT assay was performed exactly as described by Balasis, et al., Clin. Cancer Res. 2011; 17(9):2852-2862, to determine the effects of S3I-1757 on cell proliferation. Cells were plated in a 96 well tissue culture plate (2000 cells per well) and incubated for 12 hours. After incubation the cells were treated with vehicle S3I-1757 or S3I-1756 for 48 hours. After incubation, freshly prepared MTT (3 mg/ml) in 1×PBS was added to each well and incubated for 3 hours and the plate was read at 570 nm.
Several cell lines were used, some with persistently Y705 phosphorylated STAT3 and others without (FIG. 9A). […] The effects of S3I-1757 on cancer cell anchorage-independent growth were next determined by soft-agar assay.

[5] = tested on: P-STAT3 in the nucleus of MDA-MB-468 cells; test: P-STAT3 nuclear accumulation by immunofluorescence
Protocol: MDA-MB-468 cells were plated at 4000 cells/well in 8-chamber slide. […] Cells were fixed, washed, and permeabilized as describe above. Specimens were then blocked in 1% bovine serum albumin (BSA) for 30 min and incubated with anti-pSTAT3 (Cell Signaling), antibody at 1:50 dilution at 4° C. overnight. Subsequently, cells were rinsed 4-5 times in PBS, incubated with Alexa Fluor secondary antibody for 1 hour at room temperature in the dark. Specimens were then washed 5 times with PBS, covered with cover slides with [sequence] mounting medium containing DAPI (Vector Lab, Inc., Burlingame, Calif.), and examined immediately under Zeiss Upright Fluorescence Microscope (Zeiss, Thornwood, N.Y., USA).

MDA-MB-468 cells = test: anchorage independent growth by soft agar assay, MDA-MB-468; conditions: constitutively active STAT3
Protocol: as §1

[6] = tested on: MDA-MB-231 and A-549 cells; test: wound healing (migration) assay, cells with persistently activated STAT3
Protocol: A549, MDA-MB-231 and H460 cells were seeded at 6×10^5 cells per dish into 60 mm plate and allowed to grow overnight. Wounds were made the following day by scratching the cells with pipette tips (1-10 μL). Cells were treated with vehicle, S3I-1756 or S3I-1757 and allowed to migrate into the scratched area for 16 hours in regular growth medium. The migration of cells was visualized at 10× magnification using a Leica Microscope at time 0 (right before the drug was added) and 16 hours after vehicle, S3I-1756, or S3I-1757 treatments.
The cancer cells were cultured with serum-starved medium for 8 hours before scratching the cells with a pipette tip and treating with increasing concentrations of S3I-1757 for 24 hours. […] Finally, the ability of S3I-1757 to inhibit selectively invasion was determined.

[7] = MDA-MB-468 transfected with STAT3-C

Sequence of dimerization of FLAG-STAT3 and HA-STAT3 (P42227 whole entry): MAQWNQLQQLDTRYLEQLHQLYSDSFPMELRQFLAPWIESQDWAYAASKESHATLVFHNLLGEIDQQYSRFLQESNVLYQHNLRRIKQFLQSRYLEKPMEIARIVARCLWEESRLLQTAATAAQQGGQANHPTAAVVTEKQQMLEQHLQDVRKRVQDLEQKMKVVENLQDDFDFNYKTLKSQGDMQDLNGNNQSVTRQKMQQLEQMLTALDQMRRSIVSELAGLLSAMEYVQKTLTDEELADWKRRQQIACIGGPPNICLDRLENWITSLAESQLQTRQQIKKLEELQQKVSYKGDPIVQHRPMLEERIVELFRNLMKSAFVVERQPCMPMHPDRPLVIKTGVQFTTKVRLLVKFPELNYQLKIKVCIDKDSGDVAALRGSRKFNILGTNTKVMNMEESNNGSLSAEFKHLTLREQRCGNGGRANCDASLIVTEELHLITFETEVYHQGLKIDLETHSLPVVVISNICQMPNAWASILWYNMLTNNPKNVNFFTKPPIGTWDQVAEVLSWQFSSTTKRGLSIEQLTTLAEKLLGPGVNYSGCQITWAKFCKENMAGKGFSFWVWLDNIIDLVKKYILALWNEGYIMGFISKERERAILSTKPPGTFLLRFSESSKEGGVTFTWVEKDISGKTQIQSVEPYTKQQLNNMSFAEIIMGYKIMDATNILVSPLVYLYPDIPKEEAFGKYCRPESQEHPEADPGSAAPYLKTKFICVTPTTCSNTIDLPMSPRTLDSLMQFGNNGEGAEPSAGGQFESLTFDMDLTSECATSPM

Compound: O=C(O)c1cc(N(Cc2ccc(C3CCCCC3)cc2)C(=O)c2ccc(Oc3ccccc3)cc2)ccc1O [Compound 20g, 5-(N-(4-Cyclohexylbenzyl)-4-phenoxybenzamido)-2-hydroxybenzoic acid]
- anchorage-independent growth (soft agar), H460 (H460 cells): little effect
- apoptosis induction (caspase 3, PARP) ([1]; MDA-MB-468, FIG. 11A): induced activation of caspase 3 and PARP cleavage
- expression levels of BclxL, cyclin D1 and survivin ([1]; MDA-MB-468, FIG. 11A): inhibited the expression levels of these proteins
- down regulation of BclxL, cyclin D1, survivin and apoptosis with ectopic STAT3-C [1, 7]: ectopic expression of STAT3-C inhibited the ability of S3I-1757 to down regulate
- inhibition of migration and invasion, STAT3-C-transfected cells [1, 7]: partially rescued
- proliferation/survival by MTT with STAT3-C ([1]; MDA-MB-468 transfected with STAT3-C, FIG. 11B): STAT3-C inhibited S3I-1757 from inhibiting the proliferation/survival
- migration and invasion, vector-transfected cells ([1]; MDA-MB-468 transfected with vector DNA): inhibited the migration and invasion
- co-localization of FLAG-STAT3 and HA-STAT3 (yellow color) [2]: progressively less yellow color over time
- activated STAT3 in nuclear extracts capable of binding the STAT3 DNA binding probe [3]: contained less activated STAT3 capable of binding the STAT3 DNA binding probe
- anchorage-dependent proliferation by MTT, cells that harbor persistently activated STAT3 [4]: inhibited in a dose dependent manner
- levels of p-STAT3 in the nucleus ([5]; 2 hours and 4 hours): dramatically decreased
- P-STAT3 nuclear accumulation ([5]; 18 hours, various concentrations): inhibited P-STAT3 nuclear accumulation in a concentration-dependent manner starting at 50 μM
- anchorage independent growth (soft agar), MDA-MB-468 (MDA-MB-468 cells): significantly inhibited
- migration (wound healing), MDA-MB-231 and A-549 [6]: prevented this migration
